Literature values in US6436449B2, “Use of a composition” (priority 2000, dated 2002).

Assays:
[1] = injected into mice; US 4,543,212
blood platelets = conditions: in vitro; US 4,543,212
burn eschars = conditions: mice; US 4,543,212

Substance: xeronine
- anti-inflammatory action [1]: excellent anti-inflammatory agents
- aggregation of blood platelets by adenosine diphosphate (blood platelets): inhibited
- debridement of burn eschars (burn eschars): caused the debridement of burn eschars
